This passage reports EC50 results from patent publication US20130296311A1, “INHIBITORS OF HCV NS5A” (PRESIDIO PHARMACEUTICALS, INC., priority 2010, published 2013).

Structures are written as SMILES.

One assay deals with HCV 1b_Huh-Luc/Neo-ET cell line persistently expressing a bicistronic genotype 1b replicon in Huh 7 cells. Description: HCV replicon assay (luciferase readout, 72 h). The conditions noted are these: Hepatitis C virus, Huh-7, 72 h, read-out: Inhibition of HCV genotype 1b. It is filed as cell-based, HCV genotype 1b. The essentials: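 Huh 7 cells carrying a bicistronic genotype 1b luciferase/neo replicon received compound in triplicate the day after plating. After 72 h, replicon levels were read as Bright-Glo luciferase activity, expressed as % of control; EC50 was fitted with a four-parameter logistic and determined several times.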
As for `COC(=O)N[C@H](C(=O)N1CCC[C@H]1c1ncc(-c2ccc(C#Cc3ccc(-c4cnc([C@@H]5CCCN5C(=O)[C@@H](NC(=O)OC)C(C)C)[nH]4)c(F)c3)cc2)[nH]1)C(C)C` [Compound 1011], the EC50 is below 1 nM.

For `COC(=O)N[C@@H](C(=O)N1CCC[C@H]1c1ncc(-c2ccc(C#Cc3ccc(C(=O)NC[C@@H]4CCCN4C(=O)[C@H](NC(=O)N4CCN(C)CC4)c4ccccc4)cc3)cc2)[nH]1)c1ccccc1` [Compound 236], the EC50 was below 1 nM.

On to `COC(=O)N[C@H](C(=O)N1CCC[C@H]1c1ncc(-c2ccc(C#Cc3ccc(-c4cnc([C@@H]5CCCN5C(=O)[C@@H](NC(=O)OC)[C@@H](C)OC)[nH]4)cc3)cc2)[nH]1)[C@@H](C)OC` [Compound 284], for which the EC50 was below 1 nM.

For `COC(=O)N[C@@H](C(=O)N1CCC[C@H]1c1ncc(-c2ccc(C#Cc3ccc(-c4cnc([C@@H]5CCCN5C(=O)[C@H](NC(=O)N5CCC[C@@H]5CO)c5ccccc5)[nH]4)cc3)cc2)[nH]1)c1ccccc1` [Compound 254], the EC50 was below 1 nM.

`COC(=O)N[C@H](C(=O)N1CCC[C@H]1c1ncc(-c2ccc(C#Cc3ccc(-c4cnc([C@@H]5CCCN5C(=O)[C@@H](c5ccccc5)N5CCOC5=O)[nH]4)cc3)cc2)[nH]1)C(C)C` [Compound 1007]: the EC50 was below 1 nM.

As to `COC(=O)N[C@H](C(=O)N1CCC[C@H]1c1nc2ccc(-c3ccc(C#Cc4cnc([C@@H]5CCCN5C(=O)[C@H](NC(=O)OC)c5ccccc5)[nH]4)cc3)cc2[nH]1)C(C)C` [Compound 1085], the EC50 was below 1 nM.

On to `C[C@@H]1OC(=O)N[C@H]1C(=O)N1CCC[C@H]1c1ncc(-c2ccc(C#Cc3ccc(-c4cnc([C@@H]5CCCN5C(=O)[C@@H]5NC(=O)O[C@H]5C)[nH]4)cc3)cc2)[nH]1` [Compound 1000], for which the EC50 lay in the range of 10 to 999 nM.

Consider `C[C@@H](NC(=O)[C@@H]1CCCN1C(=O)[C@H](NC(=O)C1CC1)c1ccccc1)c1ccc(C#Cc2ccc(-c3cnc([C@@H]4CCCN4C(=O)[C@H](NC(=O)C4CC4)c4ccccc4)[nH]3)cc2)cc1` [Compound 168], for which the EC50 was below 1 nM.

On to `CCN(CC)[C@@H](C(=O)N1CCC[C@H]1c1ncc(C#Cc2ccc(C#Cc3cnc([C@@H]4CCCN4C(=O)[C@H](NC(=O)OC)c4ccccc4)[nH]3)cc2)[nH]1)c1ccccc1` [Compound 315], for which the EC50 is below 1 nM.

For the molecule `CCN(CC)[C@@H](C(=O)N1CCC[C@H]1c1ncc(-c2ccc(-c3ccc(C#Cc4cnc([C@@H]5CCCN5C(=O)[C@H](NC(=O)OC)c5ccccc5)[nH]4)cc3)cc2)[nH]1)c1ccccc1` [Compound 751], the EC50 is below 1 nM.

Take `CC(C)OC(=O)N[C@@H](C(=O)N1CCC[C@H]1c1ncc(-c2ccc(C#Cc3ccc(-c4cnc([C@@H]5CCCN5C(=O)[C@H](NC(=O)OC(C)C)c5ccccc5)[nH]4)cc3)cc2)[nH]1)c1ccccc1` [Compound 227]: the EC50 is below 1 nM.

Turning to `COC(=O)N[C@H](C(=O)N1CCC[C@H]1c1nc2ccc(C#Cc3ccc(-c4cnc([C@@H]5CCCN5C(=O)[C@H](NC(=O)OC)C(C)C)[nH]4)cc3)cc2[nH]1)C(C)C` [Compound 1053], the EC50 is below 1 nM.

Turning to `O=C(N[C@@H](C(=O)N1CCC[C@H]1c1ncc(-c2ccc(C#Cc3ccc(-c4cnc([C@@H]5CCCN5C(=O)[C@H](NC(=O)N5CCCCC5)c5ccccc5)[nH]4)cc3)cc2)[nH]1)c1ccccc1)N1CCCCC1` [Compound 250], the EC50 is below 1 nM.

Take `COC(=O)N[C@@H](CC(C)C)C(=O)N1CCC[C@H]1c1ncc(-c2ccc(C#Cc3ccc4nc([C@@H]5CCCN5C(=O)[C@H](CC(C)C)NC(=O)OC)[nH]c4c3)cc2)[nH]1` [Compound 1067]: the EC50 was below 1 nM.

With `COC(=O)N[C@H](C(=O)N1CCC[C@H]1c1nc2ccc(C#Cc3ccc(-c4ccc5nc([C@@H]6CCCN6C(=O)[C@@H](NC(=O)OC)C(C)C)[nH]c5c4)nc3)cc2[nH]1)C(C)C` [compound 1083], the EC50 was below 1 nM.

With `COC(=O)N[C@@H](C(=O)N1CCC[C@H]1c1ncc(-c2ccc(C#Cc3ccc(-c4cnc([C@@H]5CCCN5C(=O)[C@H](NC(=O)N5CCOCC5)c5ccccc5)[nH]4)cc3)cc2)[nH]1)c1ccccc1` [Compound 224], the EC50 is below 1 nM.

On to `COC(=O)N[C@@H](C(=O)N1CCC[C@H]1c1ncc(-c2ccc(C#Cc3ccc(-c4cnc([C@@H]5CCCN5C(=O)[C@H](NC(=O)OC)C(C)C)[nH]4)cc3)cc2)[nH]1)C(C)C` [Compound 292], for which the EC50 is above 1000 nM.

Take `COC(=O)N[C@H](C(=O)N[C@H](c1ncc(-c2ccc(C#Cc3ccc(-c4cnc([C@@H]5CCCN5C(=O)[C@@H](NC(=O)OC)C(C)C)[nH]4)cc3)cc2)[nH]1)C(C)C)C(C)C` [Compound 276]: the EC50 was in the range of 1 to 9.9 nM.

With `COC(=O)N[C@H](C(=O)N[C@@H](C)c1ncc(-c2ccc(C#Cc3ccc(-c4cnc([C@H](C)NC(=O)[C@@H](NC(=O)OC)[C@@H](C)OC)[nH]4)cc3)cc2)[nH]1)[C@@H](C)OC` [Compound 952], the EC50 lay within 1 to 9.9 nM.

Consider `O=C(N[C@@H](C(=O)N1CCC[C@H]1c1ncc(C#Cc2ccc(-c3cnc([C@@H]4CCCN4C(=O)[C@H](NC(=O)C4CC4)c4ccccc4)[nH]3)cc2)[nH]1)c1ccccc1)C1CC1` [Compound 100], for which the EC50 is below 1 nM.

With `CC(C)[C@@H](NC(=O)OC(C)(C)C)C(=O)N1CCC[C@H]1c1ncc(C#Cc2ccc(C#Cc3cnc([C@@H]4CCCN4C(=O)[C@H](NC(=O)OC(C)(C)C)C(C)C)[nH]3)cc2)[nH]1` [Compound 301], the EC50 was above 1000 nM.

Consider `COC(=O)N[C@H](C(=O)N1CCC[C@H]1c1nc2c([nH]1)-c1ccc(C#Cc3ccc(-c4cnc([C@@H]5CCCN5C(=O)[C@H](NC(=O)OC)c5ccccc5)[nH]4)cc3F)cc1CC2)C(C)C` [Compound 1098], for which the EC50 was below 1 nM.

Take `CN1CCN(C(=O)N[C@@H](C(=O)N2CCC[C@H]2c2ncc(-c3ccc(C#Cc4ccc(-c5cnc([C@@H]6CCCN6C(=O)[C@H](NC(=O)C6CC6)c6ccccc6)[nH]5)cc4)cc3)[nH]2)c2ccccc2)CC1` [Compound 238]: the EC50 was below 1 nM.

With `CC(C)(C)OC(=O)N[C@@H](C(=O)N1CCC[C@H]1c1ncc(-c2ccc(C#Cc3ccc(-c4cnc([C@@H]5CCCN5C(=O)[C@H](NC(=O)OC(C)(C)C)c5ccccc5)[nH]4)cc3)cc2)[nH]1)c1ccccc1` [Compound 246], the EC50 is below 1 nM.

In the case of `CC(C)(C)OC(=O)N[C@@H](C(=O)N1CCC[C@H]1C(=O)NCc1ccc(C#Cc2cnc([C@@H]3CCCN3C(=O)[C@H](NC(=O)OC(C)(C)C)c3ccccc3)[nH]2)cc1)c1ccccc1` [Compound 119], the EC50 was below 1 nM.

In the case of `CC(C)[C@H](NC(=O)N1CCCC1)C(=O)N1CCC[C@H]1c1ncc(-c2ccc(C#Cc3ccc(-c4cnc([C@@H]5CCCN5C(=O)[C@@H](NC(=O)N5CCCC5)C(C)C)[nH]4)cc3)cc2)[nH]1` [Compound 288], the EC50 was above 1000 nM.

For `COC(=O)N[C@H](C(=O)N[C@@H](C)c1ncc(-c2ccc(C#Cc3ccc(-c4cnc([C@@H]5CCCN5C(=O)[C@@H](NC(=O)OC)[C@@H](C)OC)[nH]4)cc3)cc2)[nH]1)[C@@H](C)OC` [Compound 289], the EC50 was below 1 nM.

`C[C@@H](NC(=O)C1CC1)C(=O)N1CCC[C@H]1c1ncc(-c2ccc(C#Cc3ccc(-c4cnc([C@@H]5CCCN5C(=O)[C@@H](C)NC(=O)C5CC5)[nH]4)cc3)cc2)[nH]1` [Compound 154]: the EC50 is 1 to 9.9 nM.

With `COC(=O)N[C@H](C(=O)N1CCC[C@H]1c1ncc(-c2ccc(C#Cc3ccc4nc([C@@H]5CCCN5C(=O)[C@H](NC(=O)OC)C(C)C)[nH]c4c3)cc2)[nH]1)C(C)C` [Compound 1054], the EC50 is below 1 nM.

`COC(=O)N[C@@H](C(=O)N1CCC[C@H]1c1ncc(-c2ccc(C#Cc3ccc(-c4cnc([C@@H]5CCCN5C(=O)Nc5ccccc5)[nH]4)cc3)cc2)[nH]1)c1ccccc1` [Compound 196]: the EC50 lay within 1 to 9.9 nM.

For `COC(=O)N[C@H](C(=O)N1CCC[C@H]1c1ncc(-c2ccc(C#Cc3ccc(-c4cnc([C@@H]5CCCN5C(=O)[C@@H](c5ccccc5)N5CCC(C)(O)CC5)[nH]4)cc3)cc2)[nH]1)C(C)C` [Compound 970], the EC50 is below 1 nM.

In the case of `COC(=O)N[C@@H](C(=O)N1CCC[C@H]1c1ncc(C#Cc2ccc(C#Cc3cnc([C@@H]4CCCN4C(=O)[C@@H](c4ccccc4)N4CCOCC4)[nH]3)cc2)[nH]1)c1ccccc1` [Compound 313], the EC50 was below 1 nM.

Turning to `COC(=O)N[C@H](C(=O)N1CCC[C@H]1c1ncc(-c2ccc(C#Cc3ccc4nc([C@@H]5CCCN5C(=O)[C@H](C(C)C)N(C)C)[nH]c4c3)cc2)[nH]1)C(C)C` [Compound 1021], the EC50 is below 1 nM.

As to `COC(=O)N[C@@H](C(=O)N1CCC[C@H]1c1ncc(C#Cc2ccc(-c3ccc(-c4cnc([C@@H]5CCCN5C(=O)[C@@H](c5ccccc5)N(C)C)[nH]4)cc3)cc2)[nH]1)c1ccccc1` [Compound 755], the EC50 was below 1 nM.

Staying with this assay, now noted: Hepatitis C virus, Huh-7, read-out: Inhibition of HCV genotype 1b.
On to `COC(=O)N[C@H](C(=O)N1CCC[C@H]1c1ncc(-c2ccc(C#Cc3ccc4nc([C@@H]5CCCN5C(=O)[C@@H](NC(=O)OC)C(C)C)[nH]c4c3)cc2F)[nH]1)C(C)C` [Compound 1223], for which the EC50 is below 1 nM.

For `CC[C@H](C)[C@H](NC(=O)OC)C(=O)N1CCC[C@H]1c1ncc(-c2ccc3cc(C#Cc4[nH]c([C@@H]5CCCN5C(=O)[C@@H](NC(=O)OC)[C@@H](C)OC)nc4C(F)(F)F)ccc3c2)[nH]1` [Compound 1259], the EC50 was below 1 nM.

Take `CC[C@H](C)C(NC(=O)OC)C(=O)N1CCC[C@H]1c1nc2ccc(C#Cc3ccc(-c4cnc([C@@H]5CCCN5C(=O)[C@@H](NC(=O)OC)[C@@H](C)OC)[nH]4)cc3)cc2[nH]1` (stereo partly drawn) [Compound 1246]: the EC50 was below 1 nM.

Turning to `COC(=O)N[C@H](C(=O)N1CCC[C@H]1c1nc2ccc(C#Cc3ccc4c(ccc5nc([C@@H]6CCCN6C(=O)[C@@H](NC(=O)OC)C(C)C)[nH]c54)c3)cc2[nH]1)C(C)C` [Compound 1273], the EC50 is below 1 nM.

Turning to `COC(=O)N[C@H](C(=O)N1CCC[C@H]1c1ncc(-c2ccc(C#Cc3ccc4c(ccc5nc([C@@H]6CCCN6C(=O)[C@@H](NC(=O)OC)C6CCOCC6)[nH]c54)c3)cc2)[nH]1)C(C)C` [Compound 1272], the EC50 was below 1 nM.
